Three compounds from patent US20230149448A1, “METHODS FOR PREVENTING AND TREATING R[…] MODIFICATION OF VIRUS RECEPTOR BINDING DOMAINS USING […]” (priority 2021, published 2023) can be followed below.

Structures are written as SMILES.

The subject of series [1] is SARS-CoV-2. The series is classed as cell-based.
Series [2] has as its target receptor binding domain (RBD) of Spike S protein (Severe acute respiratory syndrome coronavirus 2, UniProt P0DTC2). The series is described as follows: Exposure of Spike protein, capture/detection by RBD-specific antibodies (96 well, HRP). Also noted: species or system SARS-CoV-2. Conditions: 150 ppm, 5 minutes exposure.
Series [3] deals with SARS-CoV-2. The series is classed as cell-based. The source holds these as a separate data set.
A further series has as its system human subjects. In words: Safety of microaerosolized HOCl inhalation in human volunteers. The series is classed as in vivo. Conditions: dense microaerosols for 2-5 minutes, 400 episodes. Here is the method:
The safety of exposure of human subjects to microaerosolized pure stable HOCl of the present disclosure via the respiratory route was evaluated.
Human volunteers were exposed to dense microaerosols of HOCl for periods of 2-5 minutes and submitted subjective reports of the outcomes of these experiences. Data on a total of 400 such episodes were collected under medical supervision.

Take `CCO` [45% ethanol, ethanol, reference compound]: the “average reductions in infectivity (positive control)” value with SARS-CoV-2 [1] is reported as 99.98%.
Consider `OBr` [HOBr, hypobromous acid], for which the “inhibition of chromophore formation (S protein remaining bound by RBD specific antibodies)” value in series [2] was “complete inhibition”.
Take `OCl` [HOCl, hypochlorous acid]: the “average reduction in titer” value in the series with SARS-CoV-2 [3] was found to be 99.96%. Further, in the series on SARS-CoV-2 [1], the “average reductions in infectivity” value is listed as 99.92%. The “inhibition of chromophore formation (S protein remaining bound by RBD specific antibodies)” value in series [2] is “complete inhibition”. In addition, the serious adverse effects result in the series on human subjects was “No serious adverse effects”. For the same compound, the “minor complaints (nose irritation, slight impact on ease of deep breathing)” value in the series with human subjects (disappeared upon cessation of exposure) is on record as “approximately 3%”.
